Measured values reported in article PMC12501607, “Novel prolyl endopeptidase inhibitor from Myricaria germanica alleviates steatohepatitis” (RSC Advances, 2025).

Legend:
[1] = molecular target: T1, Prolyl endopeptidase (PREP) (Homo sapiens, UniProt P48147); experiment: Chromogenic enzyme assay (Z-Gly-Pro-pNA, […] nm) with recombinant human PREP; Lineweaver-Burk kinetics; assay type: biochemical
T1 sequence (P48147 1-710): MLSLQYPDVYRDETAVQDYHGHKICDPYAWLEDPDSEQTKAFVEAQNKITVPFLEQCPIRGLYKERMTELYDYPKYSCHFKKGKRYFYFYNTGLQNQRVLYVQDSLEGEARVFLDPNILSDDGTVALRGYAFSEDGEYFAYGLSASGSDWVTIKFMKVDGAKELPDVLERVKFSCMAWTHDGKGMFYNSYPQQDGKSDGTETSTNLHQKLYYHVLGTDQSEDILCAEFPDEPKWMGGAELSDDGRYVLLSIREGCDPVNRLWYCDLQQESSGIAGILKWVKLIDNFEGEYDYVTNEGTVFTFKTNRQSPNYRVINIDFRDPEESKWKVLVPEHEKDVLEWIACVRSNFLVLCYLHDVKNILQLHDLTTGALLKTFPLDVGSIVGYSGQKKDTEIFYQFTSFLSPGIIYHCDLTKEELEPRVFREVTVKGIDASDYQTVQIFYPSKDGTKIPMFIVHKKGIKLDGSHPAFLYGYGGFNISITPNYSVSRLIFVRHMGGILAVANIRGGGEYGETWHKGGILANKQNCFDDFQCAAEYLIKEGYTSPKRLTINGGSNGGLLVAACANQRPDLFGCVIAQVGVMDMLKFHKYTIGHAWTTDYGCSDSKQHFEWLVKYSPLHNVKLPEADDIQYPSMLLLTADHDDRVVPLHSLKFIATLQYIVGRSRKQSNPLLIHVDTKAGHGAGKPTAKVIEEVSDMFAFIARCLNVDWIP

[2] = molecular target: T1, Prolyl endopeptidase (PREP); experiment: Chromogenic enzyme assay (Z-Gly-Pro-pNA, […] nm) with recombinant human PREP; assay type: biochemical

IC50 [1] [µM] | IC50 [2] [µM] | Compound
20 ± 1.6 |  | CCCCCCCCCCCCCCCCCCCCCCCCCC1CCCCC1O (racemic) [PREPi, (±)-2-pentacosylcyclohexanol]
 | 155 ± 1.8 | COc1cc(C(=O)O)cc(OC)c1O [Fr-2, syringic acid]
